According to patent US9040637B2, “Manganese comprising nanostructures” (SPAGO IMAGING AB, priority 2011, dated 2015):

Tests used:
Assay type in all cases: physicochemical
[1] = Complexometric stability test (equimolar EDTA) evaluated by relaxometry; settings: 1 mM Mn standard + equimolar EDTA, pH 7±0.5, 60 MHz, 37° C.
Procedure: Measure the longitudinal relaxivity of a nanostructure solution (r1(ns)) having a concentration of 1 mM Mn. Prepare another nanostructure solution containing 1 mM Mn and add an equivalent molar amount of EDTA. The pH of this solution must be adjusted to pH 7±0.5, if necessary. Measure the longitudinal relaxivity of this nanostructure solution with added EDTA (r1(ns+EDTA)). As a reference material, 1 mM solution using a Manganese Standard for AAS (Fluka 77036) is prepared, added an equimolar amount of EDTA, and pH adjusted to pH 7±0.5. The longitudinal relaxivity is measured (r1(Mn+EDTA)) and resulted to a value of 1.6 mM^−1s^−1. To calculate the % Mn-released from the nanostructure after addition of equivalent EDTA:
[formula] Note: Relaxation (T1, in seconds) is measured using the Minispec mq60 NMR analyzer (60 MHz) at 37° C. and relaxivity r1 is calculated using:
[formula] where T1 H2O=[…]; c1=1 mM.

[2] = Hydrodynamic diameter by dynamic light scattering (DLS), volume average; settings: aqueous solution
Procedure: The term “DLS” as used herein is an acronym for dynamic light scattering, a particle sizing method, and may also be referred to as Photon Correlation Spectroscopy or Quasi-Elastic Light Scattering. The DLS sizes given as stated in the text and in the claims, if nothing else is specified, refers to the position of the maximum of the volume average peak for a sample measured at 25° C. in neutral aqueous solution with an ionic strength corresponding to 150 mM NaCl.
The hydrodynamic diameter referred to, is the diameter of the equivalent hard sphere as calculated from the diffusion coefficient, according to the Stokes-Einstein equation. The diffusion coefficient is in turn calculated from the time dependent light scattering data obtained by the Dynamic Light Scattering (DLS) technique. As a comparison, bovine serum albumin is measured to have a hydrodynamic diameter of 6.5 nm by DLS in aqueous solution, very much in agreement with the crystal structure. Depending on whether the number average, volume average, or scattered intensity average is used, the values may be somewhat different. […] The average diameters referred to in this text refers to volume averages.

[3] = Relaxivity (r1, r2) measurement at 1.91 T (81.33 MHz); settings: in H2O @ 25 C.
Source text: Furthermore, the effect of a compound on the T1 is given as the relaxivity so a high relaxivity gives a stronger signal enhancement. The relaxivity (r) is frequency dependent in a structure dependent way which complicates the comparison of data from the literature from different sources. The clinical MRI scanners usually have a magnetic field of 1.5 or 3 Tesla so we have measured our relaxivities at 1.91 T, corresponding to a proton resonance frequency of 81.3 MHz, as a reasonable compromise. Measurements may also be done at other frequencies, such as 60 MHz. The relaxivity for the commercially available gadolinium based contrast agents are close to 4/mMGd/s at the clinically relevant fields.

Mn+EDTA
longitudinal relaxivity r1(Mn+EDTA) [1]: 1.6 mM⁻¹ s⁻¹

bovine serum albumin: size comparison for DLS
hydrodynamic diameter by DLS [2]: 6.5 nm

[Cl][Mn][Cl] [MnCl2]
r1 [3]: 5.8
